Measured values from ChEMBL document CHEMBL3886808, “Pyrrolidine derivatives and their use as complement pathway modulators” (2016).

Molecular target: Complement factor D (Homo sapiens, UniProt P00746)
Experiment: In Vitro Assay: Recombinant human factor D (expressed in E. coli and purified using standard methods) at 10 nM concentration is incubated with test compound at various concentrations for 1 hour at room temperature in 0.1 M Hepes buffer, pH 7.5, containing 1 mM MgCl2, 1 M NaCl and 0.05% CHAPS. A synthetic substrate Z-Lys-thiobenzyl and 2,4-dinitrobenzenesulfonyl-fluoresceine are added to final concentrations of 200 μM and 25 μM, respectively. The increase in fluorescence is recorded at excitation of 485 nm and emission at 535 nm in a microplate spectrofluorimeter.

Chain of Complement factor D (P00746 whole entry): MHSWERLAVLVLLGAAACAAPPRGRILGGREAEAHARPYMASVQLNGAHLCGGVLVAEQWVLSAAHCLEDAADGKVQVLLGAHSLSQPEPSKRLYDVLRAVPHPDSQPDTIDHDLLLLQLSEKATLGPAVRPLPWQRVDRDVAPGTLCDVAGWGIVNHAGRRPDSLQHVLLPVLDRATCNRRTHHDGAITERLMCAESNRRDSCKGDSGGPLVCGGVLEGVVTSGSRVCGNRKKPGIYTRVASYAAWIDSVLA

Row | Compound | IC50
1 | CC(=O)c1nn(CC(=O)N2[C@@H]3C[C@@H]3C[C@H]2C(=O)NCCCC(F)(F)F)c2ncccc12 | 1140 nM
2 | CC(F)(F)CCNC(=O)[C@@H]1C[C@H]2C[C@H]2N1C(=O)Cn1nc(C(N)=O)c2ccccc21 | 1050 nM
